GI50 and TGI data for eight compounds are collected here from PubChem BioAssay (NCI).

Some test systems named below: SF-295 CNS; SW-620 colon; SK-MEL-28 melanoma; HT29 colon; NCI-H522 lung; OVCAR-4 ovarian; RPMI-8226 leukemia; HL-60(TB) leukemia; K-562 leukemia; HCT-15 colon.
Holding throughout (test): NCI tumour cell line growth inhibition, 48 h

Where “and” joins values, the source holds several entries; their conditions need not be identical. Equal entries are not always repeated.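 Values below derive from 48-hour exposures of cells grown in 96-well plates, with endpoints linearly interpolated between the two concentrations bracketing the appropriate inhibition level. The concentration for 50% growth inhibition is given as GI50. Definition used: TGI = concentration required for complete inhibition of growth.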

Turning to `CC(C)=CCC[C@](C)(O)[C@H]1CC[C@]2(C)[C@@H]1CC[C@@H]1[C@@]3(C)CC[C@H](OC(=O)CCC(=O)O)C(C)(C)[C@@H]3CC[C@]12C`, the GI50 with SF-295 CNS was 28.6 µM; with SW-620 colon it was 35.4 µM; in the assay on SK-MEL-28 melanoma, 16.9 µM; in the assay on HT29 colon it was 29.2 µM; in the assay on NCI-H522 lung it was 26.2 µM; in the assay with OVCAR-4 ovarian, 27.6 µM. Further, the GI50 is 7.65 µM in the assay on RPMI-8226 leukemia, 22.2 µM in the assay on HL-60(TB) leukemia, 23.8 µM in the assay with K-562 leukemia and 19.5 µM in the assay with HCT-15 colon. The TGI in the assay with SF-295 CNS was 92.5 µM; in the assay with SW-620 colon, above 100 µM; in the assay on SK-MEL-28 melanoma, 34.8 µM; with HT29 colon, above 100 µM; with NCI-H522 lung, above 100 µM; with OVCAR-4 ovarian, above 100 µM. In addition, the TGI with RPMI-8226 leukemia is 52.9 µM; with HL-60(TB) leukemia it was 53.1 µM; in the assay on K-562 leukemia, above 100 µM; with HCT-15 colon, 48.6 µM.

Regarding `CC(C)(C)c1ccc(C(O)(c2ccc(C(C)(C)C)cc2)c2ccc(C(C)(C)C)cc2)cc1`, the TGI in the assay with SF-295 CNS, with SW-620 colon, in the assay with SK-MEL-28 melanoma, with HT29 colon, in the assay with NCI-H522 lung and in the assay on OVCAR-4 ovarian was above 100 µM each time. For the same compound, the TGI in the assay on RPMI-8226 leukemia, in the assay with HL-60(TB) leukemia, in the assay with K-562 leukemia and with HCT-15 colon was above 100 µM in each case.

As for `Cc1cc(I)cc(CN(C)CCCCN2CCCC2)c1O`, the GI50 with SF-295 CNS was 13.2 µM; in the assay with SW-620 colon, 17.2 µM; in the assay with SK-MEL-28 melanoma, 13.4 µM; with HT29 colon it was 5.7 µM; in the assay with NCI-H522 lung, 22.4 µM; with OVCAR-4 ovarian, 41.6 µM. Besides, the GI50 was 15.1 µM in the assay with RPMI-8226 leukemia, 16 µM with HL-60(TB) leukemia, 11.3 µM with K-562 leukemia and 15.6 µM in the assay with HCT-15 colon. The TGI with SF-295 CNS was 28.6 µM; in the assay on SW-620 colon, 39.6 µM; in the assay on SK-MEL-28 melanoma it was 27.8 µM; in the assay with HT29 colon, 22 µM; in the assay with NCI-H522 lung it was 46.2 µM; in the assay on OVCAR-4 ovarian, above 100 µM. In addition, the TGI was found to be 36 µM in the assay with RPMI-8226 leukemia, 35.2 µM in the assay with HL-60(TB) leukemia, 24.2 µM with K-562 leukemia and 37.3 µM in the assay on HCT-15 colon.

Turning to `CCc1ccc(/C=C2/SC(=S)NC2=O)cc1`, the GI50 was 18.2 µM in the assay on SF-295 CNS; 27.2 µM in the assay with SW-620 colon; 22.9 µM in the assay with SK-MEL-28 melanoma; 27.9 µM with HT29 colon; 15 µM with NCI-H522 lung; 20 µM in the assay on OVCAR-4 ovarian. Moreover, the GI50 was 16.5 µM with RPMI-8226 leukemia, 21.6 µM in the assay with HL-60(TB) leukemia, 29.3 µM in the assay with K-562 leukemia and 16.9 µM in the assay on HCT-15 colon. Also, the TGI was 56.8 µM with SF-295 CNS; above 100 µM in the assay on SW-620 colon; 79.7 µM with SK-MEL-28 melanoma; above 80 µM in the assay on HT29 colon; 43.8 µM with NCI-H522 lung; above 93.3 µM in the assay on OVCAR-4 ovarian. The TGI is above 76 µM in the assay with RPMI-8226 leukemia, 57 µM in the assay on HL-60(TB) leukemia, above 100 µM in the assay with K-562 leukemia and 39.8 µM with HCT-15 colon.

As to `O=C(O)c1c(Cl)c(Cl)c(Cl)c(Cl)c1-c1c2cc(I)c(=O)c(I)c-2oc2c(I)c(O)c(I)cc12`, the GI50 in the assay with SF-295 CNS is 38.1 µM; with SW-620 colon, 74.4 µM and 37.6 µM; in the assay on SK-MEL-28 melanoma, 55.9 µM and 32.9 µM; in the assay on HT29 colon, 52.6 µM; in the assay on NCI-H522 lung, 26.6 µM and 39.4 µM; in the assay with OVCAR-4 ovarian, 93.1 µM and 43.9 µM. The GI50 with RPMI-8226 leukemia is 122 µM; with HL-60(TB) leukemia it was 73 µM and 42.9 µM; in the assay with K-562 leukemia, 39.2 µM and 46 µM; in the assay on HCT-15 colon, 55.7 µM. Besides, the TGI was 78.7 µM in the assay on SF-295 CNS; 79.1 µM with SW-620 colon; 73 µM in the assay with SK-MEL-28 melanoma; 154 µM with HT29 colon; 59.9 µM and 83.2 µM in the assay with NCI-H522 lung; 105 µM in the assay with OVCAR-4 ovarian. The TGI in the assay on RPMI-8226 leukemia is above 200 µM; in the assay with HL-60(TB) leukemia it was 85.2 µM; with K-562 leukemia, 116 µM; with HCT-15 colon, 162 µM.

For `CC(C)S(=O)(=O)n1c(N)nc2ccc(/C(=N/O)c3ccccc3)cc21`, the TGI is above 100 µM in the assay with SF-295 CNS; 45.3 µM in the assay on SW-620 colon; above 100 µM in the assay with SK-MEL-28 melanoma; 36.8 µM in the assay on HT29 colon; 35.2 µM in the assay on NCI-H522 lung; above 100 µM in the assay with OVCAR-4 ovarian. Besides, the TGI in the assay on RPMI-8226 leukemia was 31.8 µM; with HL-60(TB) leukemia it was 44.3 µM; in the assay on K-562 leukemia, above 100 µM; with HCT-15 colon, 79.3 µM.

On to `O=C(O)C(O)C(O)C1[O][Sb][O]C1CO` (stereo not given), for which the GI50 in the assay on SF-295 CNS is above 100 µM; with SW-620 colon, above 100 µM; in the assay on SK-MEL-28 melanoma, > 100 µM and 13.7 µM; in the assay with HT29 colon, above 100 µM; in the assay on NCI-H522 lung, > 100 µM and 14 µM; in the assay with OVCAR-4 ovarian, above 100 µM. Also, the GI50 is above 100 µM in the assay with RPMI-8226 leukemia, above 53.1 µM in the assay on HL-60(TB) leukemia, above 100 µM in the assay on K-562 leukemia and above 100 µM in the assay on HCT-15 colon. Further, the TGI in the assay on SF-295 CNS was above 100 µM; in the assay with SW-620 colon, above 100 µM; in the assay on SK-MEL-28 melanoma it was > 100 µM and 43.4 µM; in the assay with HT29 colon, above 100 µM; with NCI-H522 lung, > 100 µM and 38.9 µM; in the assay on OVCAR-4 ovarian, above 100 µM. In addition, the TGI in the assay with RPMI-8226 leukemia, in the assay on HL-60(TB) leukemia, with K-562 leukemia and in the assay with HCT-15 colon was above 100 µM in each case.

With `CCOc1ccc(N2C(N)=NC(N)=NC2(C)C)cc1`, the GI50 in the assay with SF-295 CNS was 48.1 µM; in the assay with SW-620 colon, 37.6 µM; in the assay on SK-MEL-28 melanoma, 53.7 µM; in the assay with HT29 colon, 58.1 µM; in the assay with NCI-H522 lung it was above 100 µM; in the assay with OVCAR-4 ovarian, above 100 µM. Also, the GI50 with RPMI-8226 leukemia was above 100 µM; in the assay with HL-60(TB) leukemia it was 72 µM; in the assay with K-562 leukemia, 36 µM; in the assay with HCT-15 colon, above 100 µM. Besides, the TGI with SF-295 CNS, in the assay on SW-620 colon, with SK-MEL-28 melanoma, in the assay with HT29 colon, with NCI-H522 lung and with OVCAR-4 ovarian was above 100 µM throughout. Besides, the TGI with RPMI-8226 leukemia, with HL-60(TB) leukemia, in the assay on K-562 leukemia and in the assay with HCT-15 colon was above 100 µM throughout.
